According to publication PMC9393629, “Acetogenic production of 3-Hydroxybutyrate using a native 3-Hydroxybutyryl-CoA Dehydrogenase” (Frontiers in Microbiology, 2022):

Legend:
[1] = molecular target: T1, C. ljungdahlii Hbd2 (Clostridium ljungdahlii, UniProt D8GTU3); experiment: NAD(P)H oxidation at […] nm, E. coli cell-free extract; type: biochemical; details: 75 uM NADH, 125 uM acetoacetyl-CoA; 100 mM potassium phosphate pH 6.5, 25 mM potassium citrate; vector-extract activity subtracted
T1 construct: gene mmgB_1; full-length gene expressed in E. coli, cell-free extract (bead-beating), not purified; EC 1.1.1.57 printed
T1 sequence (D8GTU3 1-313): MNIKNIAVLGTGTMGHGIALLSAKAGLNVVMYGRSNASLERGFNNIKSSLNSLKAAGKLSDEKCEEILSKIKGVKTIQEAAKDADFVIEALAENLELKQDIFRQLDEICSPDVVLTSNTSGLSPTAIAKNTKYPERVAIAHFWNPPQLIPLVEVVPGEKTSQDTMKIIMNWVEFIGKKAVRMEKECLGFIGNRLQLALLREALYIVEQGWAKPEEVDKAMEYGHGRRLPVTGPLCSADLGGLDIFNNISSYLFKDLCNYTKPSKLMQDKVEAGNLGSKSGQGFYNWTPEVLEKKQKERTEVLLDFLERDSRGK

[2] = molecular target: T2, C. kluyveri Hbd1 (Clostridium kluyveri, UniProt A5N5D1); experiment: as above; type: biochemical; details: 75 uM NADPH, 125 uM acetoacetyl-CoA; 100 mM potassium phosphate pH 6.5, 25 mM potassium citrate
T2 construct: full-length gene expressed in E. coli, cell-free extract (bead-beating), not purified
T2 sequence (A5N5D1 1-282): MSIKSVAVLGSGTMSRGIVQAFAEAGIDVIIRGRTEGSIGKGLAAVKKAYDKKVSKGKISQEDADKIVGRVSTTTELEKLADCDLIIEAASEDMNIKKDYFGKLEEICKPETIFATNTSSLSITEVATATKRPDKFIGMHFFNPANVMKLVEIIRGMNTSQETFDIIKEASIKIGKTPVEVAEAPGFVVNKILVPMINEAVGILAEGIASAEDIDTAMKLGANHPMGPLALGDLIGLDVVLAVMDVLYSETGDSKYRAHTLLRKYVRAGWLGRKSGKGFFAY

Compound	NAD(P)H oxidation at 340 nm, E. coli cell-free extract [1]	NAD(P)H oxidation at 340 nm, E. coli cell-free extract [2]
NC(=O)C1=CN([C@@H]2O[C@H](COP(=O)(O)OP(=O)(O)OC[C@H]3O[C@@H](n4cnc5c(N)ncnc54)[C@H](O)[C@@H]3O)[C@@H](O)[C@H]2O)C=CC1 [NADH]	we confirmed NADH specificity and acetoacetyl-CoA-dependence	
NC(=O)C1=CN([C@@H]2O[C@H](COP(=O)(O)OP(=O)(O)OC[C@H]3O[C@@H](n4cnc5c(N)ncnc54)[C@H](OP(=O)(O)O)[C@@H]3O)[C@@H](O)[C@H]2O)C=CC1 [NADPH]		C. kluyveri hbd1 E. coli extracts were used as an NADPH-specific control
CC(=O)CC(=O)SCCNC(=O)CCNC(=O)[C@H](O)C(C)(C)COP(=O)(O)OP(=O)(O)OC[C@H]1O[C@@H](n2cnc3c(N)ncnc32)[C@H](O)[C@@H]1OP(=O)(O)O [acetoacetyl-CoA]	we confirmed NADH specificity and acetoacetyl-CoA-dependence	Both hbd1 and hbd2 E. coli cell free extracts showed low activity without acetoacetyl-CoA
